Patent US20030087308A1, “Method for high through put screening using a small scale mill or microfluidics” (Elan Pharma International Limited, priority 2001, published 2003)
Read-outs that look alike come from different tables or passages of the source.

Legend:
[1] = Quality of milled dispersion by photomicrography; type: physicochemical
Experimental: Analysis of resultant particle size was via photomicrography.
[…] The composition was then milled in a 10 mL chamber of a NanoMill™.

[2] = Particle size of nanoparticle suspension after small scale high energy milling (microscopy, laser light diffraction); type: physicochemical
[3] = PVP K29/32 and SLS 5:2:0.05, 6000 rpm
Experimental: The mixture was milled in a NanoMill™ (Elan Drug Delivery, Inc.). Using a media load of 100% at the maximum rpm of 6000 maximized the energy input.
Further calculations were based on a bulk density of 0.61 g/ml for PolyMill™ 500 μ media (Dow Chemical) and a void volume of 40%. Since the amounts were low and mixing difficult, PVP and SLS were prepared as 20% and 5% stock solutions, respectively. The calculations for milling in a 10 mL, 18 mL, and 26 mL milling chambers are summarized in the following chart: […]

[4] = 10 mL chamber, 25 mg naproxen, after 1 hr

resultant particle size ([1]; 10 mg, Pluronic F-108 at 5:2, 10 mL chamber, 5 to 30 min)	dispersion quality ([1]; 5 mg, 10 mL chamber, PVP K29/32 and SLS 5:2:0.05)	dispersion quality ([1]; 25 mg, 10 mL chamber, 15 min)	dispersion quality ([1]; 25 mg, 18 mL chamber, 15 min)	dispersion quality ([1]; 25 mg, 18 mL chamber, 30 min)	dispersion quality ([1]; 25 mg, 26 mL chamber, 5 min)	dispersion quality ([1]; 25 mg, 26 mL chamber, 15 min)	Particle Size ([2]; 50 mg milled, 15 min milling time) [nm]	Particle Size ([2]; 200 mg milled, 60 min milling time) [nm]	mean diameter of nanoparticle suspension ([2]; <50 mg of drug milled 15 min, small-volume high energy mill, unimodal distribution)	mean particle size (bimodal peak) [3, 4] [nm]	median particle size (bimodal peak) [3, 4] [nm]	single peak mean particle size ([3]; 18 mL chamber, 45 mg naproxen) [nm]	single peak mean particle size ([3]; 26 mL chamber, 65 mg naproxen) [nm]	SMILES
predominantly sub-micron														CCOC(=O)CCCCCOC(=O)c1c(I)c(NC(C)=O)c(I)c(NC(C)=O)c1I [Photogen, 6-ethoxy-6-oxohexyl-3,5-bis(acetamido)-2,4,6-triiodobenzoate]
	well dispersed nano-suspension	reasonable naproxen dispersion	reasonable naproxen dispersion	over-milled and aggregated	excellent homogeneity	clearly degenerating	159	147	less than 200 nm	1496	354	314	630	COc1ccc2cc([C@H](C)C(=O)O)ccc2c1 [Naproxen]
